This is an account of results in patent US20070065524A1, “Pharmaceutical composition containing guaiacol derivatives and syringol derivatives extracted from natural plant vinegar” (priority 2003, published 2007).

The assay can be described thus: DPPH free radical scavenging ability. Type of assay: biochemical. For orientation: Loss of DPPH colour is used to gauge radical scavenging.

Procedure: For example, a method using DPPH(1,1-diphenyl-2-picrylhydrazin) can be used.
DPPH scavenging ability, as described later, was evaluated by using each fraction.
4 ml of samples with 0.1, 0.05, 0.005, 0.001, 0.0005 and 0.0001 mg/ml diluted with methanol and 1 ml of 0.1 mM DPPH methanol solution were put into test tubes and mixed well, and left in a dark place for 30 minutes. Then absorbance of the mixture at 520 nm was read and compared with that of the BHT standard solution. The reducing power of samples can be indicated as scavenging activity (SC50) and SC50 is the concentration of samples that makes the concentration of DPPH reduce to 50%.

As to `Cc1cc(C(C)(C)C)c(O)c(C(C)(C)C)c1` [BHT, butylated hydroxy toluene], the “Free radical removal ability” value worked out at 23.30 ± 1.94% (Conc. 10 ug/ml), 68.41 ± 1.55% (Conc. 50 ug/ml), 87.73 ± 0.64% (Conc. 100 ug/ml) and 96.03 ± 0.12% (Conc. 500 ug/ml).
